Test results from US20190211024A1 (priority 2016, published 2019).

melting point: 185 °C
SMILES: CC(C)SN1C=Cn2c(nc(=O)n2[N+](=O)[O-])N1.O.O (hydrate or solvate)
